Test results as given in US4900815A, “Sulfated polysaccharide DS4152” (Daiichi Seiyaku Co., Ltd., priority 1986, dated 1990).

What was measured:
[1] = system: angiogenesis of the chick CAM; assay: CAM angiogenesis inhibition, various steroids alone or with DS4152; type: in vivo
Sarcoma 180 (S180) = assay: Antitumor Test, Sarcoma 180, DS4152 and cortisone acetate; type: in vivo, mouse (male ICR)
Experimental: Male ICR mice (5 weeks old) were each inoculated subcutaneously with 1×10^6 cells of Sarcoma 180 (S180). From the 3rd day, a saline suspension of cortisone acetate was administered at a dose of 250 mg/kg/day for 3 days and then at a dose of 100 mg/kg/day for 1 day.
DS4152 was dissolved in physiological saline and administered at a dose of 0.61 or 6.1 mg/mouse subcutaneously or orally once a day for 4 days. On the 7th day after the inoculation, the mice were sacrificed to compare their tumor weights with those of the control mice.

CAM vascularization = assay: Antiangiogenic Effects (Ex Vivo) of steroids with or without DS4152; design: species or system chick (blood from male ICR mice); settings: steroid p.o. 5 mg/kg
Experimental: Male ICR mice were orally administered with a solution of DS4152 dissolved in physiological saline. A saline suspension of a steroid was administered orally or intramuscularly, either in combination with DS4152 or alone. Blood samples collected after 6 hours were prevented from coagulation with a 0.313% aqueous solution of sodium citrate. Each blood sample was added to the 5 day CAM in the same manner as in the direct method. The inhibitory effects were judged after two days. Results were expressed by inhibition ratios (%) of CAM vascularization of each group to that of control group with a blood sample collected from the mice with saline. (Table 11).

[2] = system: CAM vascularization of chick embryos; assay: CAM Angiogenesis Inhibition Test (Direct Method), combination with cortisone acetate; type: in vivo; settings: 0.5 μg per embryo, alone
Experimental: Using chick embryos, a test was carried out in accordance with the following method, which was a partial modification of the Taylor-Folkman'smethod Nature, 297, 307 (1982)].
Either DS4152 or heparin dissolved in physiological saline was added to the CAM of each 4-5 day old fertilized chicken 1 egg (species: NORIN CROSS) and then the eggs were incubated at 37° C.
Two days after the addition of the agent, the degree of the CAM vascularization was compared with that of a control to which physiological saline was only added. The 50% vascularization inhibition dose (ID50) was calculated by the probit method.
In the same manner as in Example 2, combination effects of a steroid and DS4152 were examined. […] The activities of DF4639 and H Fraction were also investigated in the comparison with that of DS4152.

[3] = cortisone acetate alone, 250 then 100 mg/kg/day

For `CC(=O)OCC(=O)[C@@]1(O)CC[C@H]2[C@@H]3CCC4=CC(=O)CC[C@]4(C)[C@H]3C(=O)C[C@@]21C` [Cortisone acetate], the degree of increase ([1]; ID50 alone vs. in the presence of 10 ng of DS4152) was 7.1 times, the “ID50, used in combination with DS4152” value ([1]; in the presence of 10 ng of DS4152) was 0.17 μg/embryo and the “ID50, alone” value ([1]; steroid alone) was 1.20 μg/embryo. For the same compound, the T/C (Sarcoma 180 (S180); [3]) was 94.2%, the “Tumor weight, mean ± standard error” value (Sarcoma 180 (S180); [3]) was 0.340 ± 0.162 and the “tumor weight compared with saline group” value (Sarcoma 180 (S180); cortisone acetate only) was “not different”. The “Inhibition rate of angiogenesis” value (CAM vascularization; DS4152 0) was 7.7%, the “Inhibition rate of angiogenesis” value (CAM vascularization; DS4152 30 mg/kg p.o.) was 75.1% and the influence on vascularization [2] was “not to give any influence to the vascularization”.
